Data published in US20040076974A1, “Liver necrosis predictive genes” (priority 2002, published 2004).
Values joined by “and” are separate entries in the source; they are usually repeats but may differ in a detail not shown here. Identical values can stand only once. Like-named read-outs stand apart in the source and are kept apart here.

Columns and labels:
[1] = test system: Sprague Dawley rats; conditions: for Liver Necrosis / Score (histopathology liver necrosis severity score): rat, intraperitoneal; for Liver Necrosis: 72 hours after treatment; for Score (histopathology liver necrosis severity score): 72 hours, 1 = not remarkable, 2 and higher increasing severity
Outline: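 Toxicity calls (necrosis present or absent at 72 h) and histopathology scores were correlated with tissue gene expression from Crl:CD Sprague Dawley rats. Animals, usually 3 treated with compound by i.p. route and 3 given vehicle, were killed at 6, 24 or 72 h and tissues frozen immediately in liquid nitrogen.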

[2] = test system: toxicologically relevant rat genes (rat CT array); conditions: 24 h; dose 200; listed as BRB

Brc1ccccc1 [bromobenzene]
Liver Toxicity Necrosis Classification ([1]; 72 h, compound-dose group, dose BRB 800, BUS 14, CAD 1, CAR 16): yes
Liver Toxicity Necrosis Classification ([1]; 72 h, dose 200, animals 2327, 2328, 2329): yes
Liver Toxicity Necrosis Classification ([1]; 72 h, dose 800, animal 2337): yes
Liver Toxicity Necrosis Classification ([1]; compound-dose group at 72 h, dose 200, yes = necrosis observed): yes
Liver Toxicity Necrosis Classification ([1]; compound-dose group at 72 h, dose 800, yes = necrosis observed): yes
Liver Toxicity Necrosis Classification ([1]; compound-dose group at 72 h, dose 200): yes
Liver Toxicity Necrosis Classification ([1]; compound-dose group at 72 h, dose 800): yes
Liver Necrosis ([1]; dose 0.2 ml/kg): Yes
Score (histopathology liver necrosis severity score) ([1]; dose 0.2 ml/kg): 2
Liver Necrosis ([1]; dose 0.8 ml/kg): Yes
Score (histopathology liver necrosis severity score) ([1]; dose 0.8 ml/kg): 4
3-hydroxyisobutyrate dehydrogenase expression (treatment/control) [2]: 0.8751 and 1.339 and 0.6927
14-3-3 zeta expression (treatment/control) [2]: 1.437 and 1.592
25-DX expression (treatment/control) [2]: 1.969 and 1.763 and 1.86
60S ribosomal protein L6 expression (treatment/control) [2]: 2.093 and 1.63 and 1.941
Alpha-2-macroglobulin expression (treatment/control) [2]: 0.5548 and 0.5467 and 0.459
Apolipoprotein CIII expression (treatment/control) [2]: 0.8126 and 0.7007
Argininosuccinate lyase expression (treatment/control) [2]: 2.651 and 1.764 and 2.145
Bax (alpha) expression (treatment/control) [2]: 1.536 and 1.414 and 1.327
Beta-actin expression (treatment/control) [2]: 2.486 and 1.816 and 2.608
Beta-tubulin, class I expression (treatment/control) [2]: 2.668 and 1.782 and 2.339
Carbonyl reductase expression (treatment/control) [2]: 1.678 and 1.035 and 1.375
Cathepsin L, sequence 2 expression (treatment/control) [2]: 2.896 and 1.549 and 2.344
Cofilin expression (treatment/control) [2]: 2.923 and 2.064 and 2.935
DNA polymerase beta expression (treatment/control) [2]: 1.369 and 1.206 and 1.307
Dynamin-1 (D100) expression (treatment/control) [2]: 0.8053 and 0.7635 and 0.8226
Elongation factor-1 alpha expression (treatment/control) [2]: 2.054 and 1.728 and 1.8
Endogenous retroviral sequence, 5′ and 3′ LTR expression (treatment/control) [2]: 1.854 and 1.585 and 2.582
Enolase alpha expression (treatment/control) [2]: 2.419 and 1.535 and 1.712
Epidermal growth factor expression (treatment/control) [2]: 0.7593 and 0.7117 and 0.804
Fas antigen expression (treatment/control) [2]: 0.9199 and 0.9142 and 1.12
Glucose-regulated protein 78 expression (treatment/control) [2]: 1.405 and 1.625 and 1.635
Hepatic lipase expression (treatment/control) [2]: 0.569 and 0.6299 and 0.3937
ID-1 expression (treatment/control) [2]: 1.9 and 1.248 and 1.715
Integrin beta1 expression (treatment/control) [2]: 1.457 and 0.9085 and 1.427
MAP kinase kinase expression (treatment/control) [2]: 1.27 and 1.166 and 1.092
Matrin F/G expression (treatment/control) [2]: 0.6546 and 0.8987 and 0.4635
Matrix metalloproteinase-1 expression (treatment/control) [2]: 1.585 and 1.263 and 1.628
Melanoma-associated antigen ME491 expression (treatment/control) [2]: 1.388 and 0.9209 and 1.67
Monocyte chemotactic protein receptor (CCR2) expression (treatment/control) [2]: 1.124 and 0.9935 and 1.064
Multidrug resistant protein-2 expression (treatment/control) [2]: 1.861 and 1.261 and 1.657
Nucleoside diphosphate kinase beta isoform expression (treatment/control) [2]: 1.862 and 1.504 and 1.541
Organic anion transporter 3 expression (treatment/control) [2]: 0.5569 and 0.821 and 0.6551
Organic cation transporter 3 expression (treatment/control) [2]: 1.241 and 0.9547 and 1.365
Ornithine decarboxylase expression (treatment/control) [2]: 2.762 and 1.488 and 2.288
Phase-1 RCT-12 expression (treatment/control) [2]: 1.003
Phase-1 RCT-15 expression (treatment/control) [2]: 2.352 and 2.155
Phase-1 RCT-36 expression (treatment/control) [2]: 0.7233 and 0.7082 and 0.8303
Phase-1 RCT-37 expression (treatment/control) [2]: 0.9672
Phase-1 RCT-65 expression (treatment/control) [2]: 1.706 and 1.856
Phase-1 RCT-68 expression (treatment/control) [2]: 1.972 and 1.887
Phase-1 RCT-72 expression (treatment/control) [2]: 1.442
Phase-1 RCT-78 expression (treatment/control) [2]: 0.6352 and 0.7712 and 0.5322
Phase-1 RCT-83 expression (treatment/control) [2]: 0.6204 and 0.729
Phase-1 RCT-88 expression (treatment/control) [2]: 0.7128 and 0.75 and 0.8397
Phase-1 RCT-109 expression (treatment/control) [2]: 1.895 and 1.651 and 2.226
Phase-1 RCT-117 expression (treatment/control) [2]: 0.6683 and 0.7437
Phase-1 RCT-123 expression (treatment/control) [2]: 0.7152 and 0.6828 and 0.8648
Phase-1 RCT-137 expression (treatment/control) [2]: 1.102 and 0.6023
Phase-1 RCT-152 expression (treatment/control) [2]: 1.957 and 1.542 and 2.109
Phase-1 RCT-154 expression (treatment/control) [2]: 0.9986 and 1.304
Phase-1 RCT-168 expression (treatment/control) [2]: 0.6821 and 0.7986 and 0.5665
Phase-1 RCT-180 expression (treatment/control) [2]: 1.503
Phase-1 RCT-181 expression (treatment/control) [2]: 0.8932 and 0.9997
Phase-1 RCT-182 expression (treatment/control) [2]: 1.301 and 0.688
Phase-1 RCT-189 expression (treatment/control) [2]: 0.5887 and 0.552
Phase-1 RCT-191 expression (treatment/control) [2]: 1.728 and 1.302 and 2.139
